Data on 7 compounds can be found in patent publication EP0003920A1, “Thieno (3,2-c)- and thieno (2,3-c)pyridines, process for their preparation and their therapeutical application” (OMNIUM FINANCIER AQUITAINE POUR L'HYGIENE ET LA SANTE - …, priority 1978, dated 1979).

Data set [1] is described as follows: Acute toxicity, intravenous LD50 (method of Miller and Tainter). More on the design: species or system souris. The settings on record: mouse, in vivo, read-out: DL50/24 H/kg de poids corporel. As for the experimental part: En ce qui concerne la toxicité aigüe, la DL50/24 H/kg de poids corporel, déterminée chez la souris selon la méthode de Miller et Tainter pour la voie orale est supérieure à 400 mg pour tous les dérivés.
Selon la même méthode, la DL50/24 H/kg de poids corporel déterminée par la vole intraveineuse est, par exemple, de 154 mg pour le dérivé N° 1, de 89 mg pour le dérivé N° 2, de 184mg pour le dérivé N° 10, de 130 mg pour le dérivé N° 11, de 350mg pour le dérivé N° 12, de 65 mg pour le dérivé N° 18, de 90 mg pour le dérivé N° 22, de 96 mg pour le dérivé N° 24 et de 105 mg pour le dérivé N° 31.

The subject of data set [2] is rat. Put plainly: Anticonvulsant action against electroshock. The settings on record: 100 mg/kg oral, electroshock 30 min after treatment, score 0 to 4, untreated controls 4. In kind it is in vivo. As for the experimental part:
Cette action a été étudiée vis-à-vis des électrochocs. L'application chez le rat d'une stimulation électrique supérieure au seuil électro-convulsivant provoque des convulsions expérimentales. On compare alors chez les animaux témoins et chez les animaux traités, à la fois la présence et la durée de chacune des phases convulsives et l'intensité de la crise dans son ensemble.
On établit des séries de 10 rats par produit à tester et on administre par la voie orale, à chaque animal, 100 mg/kg de ce produit.
De chaque côté de la base de la queue de chaque […], une électrode Cat mise en place et 30 minutes après le traitement, l'animal placé dans une enceinte de verre reçoit pendant 50 millisecondes un courant sinusoïdal de 50 périodes/secondes de 120 volts.
Le passage du courant déclenche une crise convulsive dont chacune des phases (tonique, clonique, relachement musculaire) est chronométrée. L'intensité de la crise est alors notée de 0 à 4 selon la présence de chacune des phases et leur durée. Les produits de l'invention sont testés comparativement au phénobarbital qui possède une action anti-convulsivante marquée (intensité de la crise = 2), alors que chez les animaux témoins non traités c'est l'intensité maxima de 4 qui est obtenue.

For a further data set, the system named is souris. Put plainly: Potentiation of an infra-hypnotic dose of sodium pentobarbital. The settings on record: mouse, 100 mg/kg oral, 30 min before i.p. infra-hypnotic dose of sodium pentobarbital; control 0. In kind it is in vivo. As for the experimental part:
Les composés de l'invention potentialisent de façon très nette l'action des hypnotiques. En effet, administrés à différents lots de souris par la voie orale, à la dose de 100 mg/ kg, trente minutes avant l'injection intrapéritonéale d'une dose infra-hypnotique de pentobarbital sodique, ils produisent par rapport aux animaux témoins non traités, une nette poten- tialisation de l'action du barbiturique.
En effet, le nombre de souris endormies, le temps moyen d'endormissement et la durée du sommeil sont nettement accrus dans les lots traités. Les résultats des composés les plus actifs sont rassemblés dans le Tableau I suivant.

In data set [3] the test system is rat. Put plainly: Localised carrageenan-induced oedema. The data set is classed as in vivo. The settings on record: 100 mg/kg oral at -1 h, 0 h, +2.5 h. The method, then: Une solution de carragénine (0,1 ml), à 1 %, est injectée dans les fléchisseurs métatarsiens de la patte postérieure droite du rat au temps 0. Les animaux du lot traité reçoivent en outre, par la voie orale, 100 mg par kg du dérivé à tester respectivement 1 heure avant, en même temps que l'injection de l'agent phlogogène, puis 1 heure et 2 heures et demi après. Les mesures qui sont effectuées à l'aide du micromètre de ROGH au temps 0, 1 heure, 2 heures, 3 heures et 5 heures après l'administration de la carragénine permettent de déterminer, en fonction du temps, le pourcentage d'activité anti-inflammatoire, par comparaison avec le lot témoin.

The subject of data set [4] is rat. Put plainly: Generalised ovalbumin oedema. The data set is classed as in vivo. The settings on record: po, 100 mg/kg per os 1 h before and together with ovalbumin. The method, then:
Une injection intrapéritonéale simultanée de 1 ml d'ovalbumine et de 0,5 ml d'une solution aqueuse de bleu Evans à 1% est effectuée sur le rat. D'autre part, on administre per os aux animaux du lot traité 100 mg/kg du dérivé à tester une heure avant et en même temps que l'ovalbumine. L'intensité du phénomène ainsi provoqué est notée par un chiffre allant de 1 à 5 suivant la progression du syndrome inflammatoire. On détermine ainsi la moyenne de l'intensité oedémateuse et le pourcentage de diminution de la réaction oedémateuse par rapport au témoin, en fonction du temps.

Where [5] appears, read: 1 h after carrageenan, read-out: Pourcentage d'activité anti-inflammatoire 1ère heure.
Setting [6] is: 2 h after carrageenan, read-out: Pourcentage d'activité anti-inflammatoire 2ème heure.
Where [7] appears, read: 3 h after carrageenan, read-out: Pourcentage d'activité anti-inflammatoire 3ème heure.
The mark [8] stands for this setting: 5 h after carrageenan, read-out: Pourcentage d'activité anti-inflammatoire 5ème heure.
Setting [9] is: 2 h after ovalbumin injection, read-out: Pourcentage d'activité anti-inflammatoire 2ème heure.
Setting [10] is: 3 h after ovalbumin injection, read-out: Pourcentage d'activité anti-inflammatoire 3ème heure.

Consider `NC(=O)c1cc2sccc2cn1` [Dérivé 31, carbamoyl-6 thiéno [3,2-C] pyridine], for which the LD50 at 24 h in data set [1] was 105 mg/kg. Moreover, in the data set on rat [2], the “valeurs moyennes de l'intensité des crises” value is 2,5.

In the case of `O=C(c1cc2sccc2cn1)N1CCCC1` [Dérivé 10, (pyrrolidinyl-1)carbonyl-6 thiéno[3,2-c] pyridine], in data set [1], the LD50 at 24 h is 184 mg/kg. Also, in the data set with souris, the “Pourcentage d'animaux endormis” value is on record as 90%. The inhibition in vivo at 100 mg/kg turned out to be 37% with rat [3] (setting [5]); 42% in the data set on rat [3] (setting [6]); 46% in the data set with rat [3] (setting [7]); 51% in the data set on rat [3] (setting [8]); 47% with rat [4] (setting [9]); 55% in the data set on rat [4] (setting [10]).

Take `CCN(CC)CCNC(=O)c1cc2sccc2cn1` [Dérivé 18, β-diéthylaminoéthylaminocarbonyl-6 thiéno [3,2-c] pyridine]: the LD50 at 24 h in data set [1] worked out at 65 mg/kg. Also, in the data set on souris, the “Pourcentage d'animaux endormis” value worked out at 80%. Besides, the inhibition in vivo at 100 mg/kg in the data set on rat [3] (setting [5]) turned out to be 41%; with rat [3] (setting [6]), 46%; with rat [3] (setting [7]), 50%; with rat [3] (setting [8]), 55%; in the data set on rat [4] (setting [9]), 49%; in the data set on rat [4] (setting [10]), 58%.

Take `CNC(=O)c1cc2sccc2cn1` [Dérivé 1, Méthylaminocarbonyl-6 thiéno [3,2-c] pyridine]: the LD50 at 24 h in data set [1] was 154 mg/kg. In addition, in the data set on souris, the “Pourcentage d'animaux endormis” value is listed as 70%. Further, in the data set with rat [2], the “valeurs moyennes de l'intensité des crises” value is listed as 2,5. The inhibition in vivo at 100 mg/kg in the data set on rat [3] (setting [5]) was 35%; in the data set with rat [3] (setting [6]), 42%; in the data set with rat [3] (setting [7]) it was 46%; in the data set with rat [3] (setting [8]), 47%; in the data set with rat [4] (setting [9]) it was 48%; in the data set on rat [4] (setting [10]) it was 56%.

Take `CN(C)CCNC(=O)c1cc2sccc2cn1` [Dérivé 2, β -diméthylaminoéthylaminocarbonyl-6 thiéno [3,2-c] pyridine]: in data set [1], the LD50 at 24 h stood at 89 mg/kg.

As for `O=C(c1cc2sccc2cn1)N1CCCCC1` [Dérivé 11, Pipéridinocaxbonyl-6 thiéno [3,2-c] pyridine], the LD50 at 24 h in data set [1] turned out to be 130 mg/kg.

As for `O=C(NCc1ccncc1)c1cc2sccc2cn1` [Dérivé 22, (pyridyl-4 méthyl)aminocarbonyl-6 thiéno[3,2-c]pyridine], the LD50 at 24 h in data set [1] was 90 mg/kg. In the data set with souris, the “Pourcentage d'animaux endormis” value stood at 70%. For the same compound, the inhibition in vivo at 100 mg/kg amounted to 41% in the data set on rat [3] (setting [5]); 47% in the data set with rat [3] (setting [6]); 51% with rat [3] (setting [7]); 55% in the data set with rat [3] (setting [8]); 51% in the data set on rat [4] (setting [9]); 58% in the data set on rat [4] (setting [10]).
